Test [1] relates to human colon carcinoma HT29. As to the kind of experiment: In vitro cytotoxicity, Microculture Tetrazolium Assay, HT29. It counts as cell-based. The following applies: HT-29, HT29, 96 hours exposure, read-out: IC50 (concentration of cytotoxic agent which inhibits proliferation of the treated cells by 50%). The protocol: (§1) The murine leukaemia L1210 and the human colon carcinomas HCT116 and HT29 were used in vitro. The cells are cultured in RPMI 1640 complete culture medium containing 10% foetal calf serum, 2 mM glutamine, 50 units/ml of penicillin, 50 μg/ml of streptomycin and 10 mM Hepes, pH=7.4. The cells are distributed on microplates and are exposed to the cytotoxic compounds for 4 doubling times, that is to say 48 hours (L1210) or 96 hours (HCT116 and HT29). The number of viable cells is then quantified by a […] assay, the Microculture Tetrazolium Assay (J. Carmichael et al., Cancer Res.; 47, 936-942, (1987)). The results are expressed in terms of the IC50 (the concentration of cytotoxic agent which inhibits proliferation of the treated cells by 50%).

The next test concerns murine leukaemia L1210. In words: In vitro cytotoxicity, Microculture Tetrazolium Assay, L1210. It counts as cell-based. The following applies: Mus musculus; L1210, 48 hours exposure; read-out: IC50 (concentration of cytotoxic agent which inhibits proliferation of the treated cells by 50%). The protocol:
as §1

On to `CCC1(O)C(=O)Cc2c1cc1n(c2=O)Cc2c-1nc1cc3c(cc1c2-c1ccc(C)cc1)OCO3` (stereo not drawn) [Example 1, 7-Ethyl-7-hydroxy-2,3-methylenedioxy-13-(4-methylphenyl)-9,12-dihydro-7H-cyclopenta[6,7]indolizino[1,2-b]quinoline-8,10-dione], for which, in test [1], the IC50 stood at 3.2 nM.

As to `CCC1(O)C(=O)Cc2c1cc1n(c2=O)Cc2c-1nc1cc3c(cc1c2-c1ccc(N(C)C)cc1)OCO3` (stereo not drawn) [Example 6, 7-Ethyl-2,3-methylenedioxy-7-hydroxy-13-[4-(dimethylamino)phenyl]-9,12-dihydro-7H-cyclopenta[6,7]indolizino[1,2-b]quinoline-8,10-dione], the IC50 in the test on murine leukaemia L1210 came to 10.4 nM; in test [1], 4.7 nM.

The record behind these values is patent US20100168149A1, “Camptothecin Analogue Compounds, a Process for Their Preparation and Pharmaceutical Compositions Containing Them” (priority 2005, published 2010).
